Assay results reported in patent US20260256792A1, “TREATMENT OF CHRONIC SPONTANEOUS URTICARIA BY ADMINISTERING (R)-2-[3-[4-AMINO-3-(2-FLUORO-4-PHENOXY-PHENYL)PYRAZOLO[3,4-D]PYRIMIDIN-1-YL]PIPERIDINE-1-CARBONYL]-4-METHYL-4-[4-(OXETAN-3-YL)PIPERAZIN-1-YL]PENT-2-ENENITRILE” (priority 2023, published 2026).

System: moderate-to-severe chronic spontaneous urticaria (CSU)
Assay: Phase 2 CSU study: urticaria activity score over 7 days (UAS7)
Type: in vivo, human
Parameters: key to UAS7 Median / UAS7 Change from baseline Median / UAS7 change from baseline, Q1 / UAS7 change from baseline, Q3 / UAS7 change from baseline, Max / UAS7 Change from baseline LS Mean (SE): UAS7 points; daily UAS score ranges 0–6 points/day, over 7 days
From the text: The study comprises a 12 week, randomized, double-blind, placebo-controlled, multi-center, dose-ranging efficacy and safety phase, followed by a 40 week open label extension (OLE) phase (see FIG. 1). The study consists of three phases and an optional OLE phase. […] Clinically, CSU is characterized by the spontaneous and recurrent appearance of pruritic hives. The proposed primary endpoints were the UAS7 at Week 12 in EU and EU reference countries and the ISS7 in the US. Regardless of where a participant was from, all assessments were the same. The UAS7 score is a composite score containing both the HSS7 and the ISS7. This allowed a global assessment of the two key components of urticaria: hives and itch. […] The UAS is a validated PRO measure. […] The daily UAS scores range from 0 to 6 point/day. […] Patients were to complete the UAS using the e-diary. […] The following secondary endpoints were to be analyzed using the same approach as for the primary endpoint: • Change from baseline in UAS7 at Week 4 • Change from baseline in UAS7 at Week 12 (for US and US reference countries) • Change from baseline in ISS7 at Week 12 (except US and US reference countries) • Change from baseline in HSS7 at Week 12 The following responder secondary endpoints were to be analyzed using the Cochran-Mantel-Haenszel test adjusted by region: • Proportion of participants with UAS7<6 at Week 12 • Proportion of participants with UAS7=0 at Week 12 Participants who received selected prohibited medications and/or rescue medications were to be considered as non-responders for time points after the medication usage. For other participants, all available data including those collected during the off-treatment period were to be used to determine the responder/non-responder status. Missing data were to be considered as non-responders.

[1] = Week 1, 400 mg QPM, Prior Omalizumab Use
[2] = Week 1, 400 mg QPM, omalizumab-naive participants
[3] = Week 1, 400 mg TID, ITT population
[4] = Week 1, 400 mg TID, Omalizumab-Naïve
[5] = Week 1, 400 mg TID, Prior Omalizumab Use
[6] = Week 1, 400 mg TID, omalizumab-naive participants
[7] = Week 2, 400 mg BID, ITT population
[8] = Week 2, 400 mg BID, Omalizumab-Naïve
[9] = Week 2, 400 mg BID, Prior Omalizumab Use
[10] = Week 2, 400 mg BID, omalizumab-naive participants
[11] = Week 2, 400 mg QPM, ITT population
[12] = Week 2, 400 mg QPM, Omalizumab-Naïve
[13] = Week 2, 400 mg QPM, Prior Omalizumab Use
[14] = Week 2, 400 mg QPM, omalizumab-naive participants

CC(C)(C=C(C#N)C(=O)N1CCC[C@@H](n2nc(-c3ccc(Oc4ccccc4)cc3F)c3c(N)ncnc32)C1)N1CCN(C2COC2)CC1 [rilzabrutinib, (R)-2-[3-[4-amino-3-(2-fluoro-4-phenoxy-phenyl)pyrazolo[3,4-d]pyrimidin-1-yl]piperidine-1-carbonyl]-4-methyl-4-[4-(oxetan-3-yl)piperazin-1-yl]pent-2-enenitrile]
UAS7 Percent change from baseline Mean (SD) [1]: −39.02 (NC) % | UAS7 Percent change from baseline Median [1]: −39.02% | Non-responder, UAS7 reduction from baseline of 10 points or more [2]: 26 (70.3) n (%) | OR for rilzabrutinib vs. placebo, UAS7 reduction of 10 points or more [2]: 1.510 | RRD (%) for rilzabrutinib vs. placebo, UAS7 reduction of 10 points or more [2]: 8.2 % | Responder, UAS7 reduction from baseline of 10 points or more [2]: 11 (29.7) n (%) | Non-responder, UAS7 reduction from baseline of 10 points or more [3]: 18 (43.9) n (%) | OR for rilzabrutinib vs. placebo, UAS7 reduction of 10 points or more [3]: 4.196 | RRD (%) for rilzabrutinib vs. placebo, UAS7 reduction of 10 points or more [3]: 32.5 % | Responder, UAS7 reduction from baseline of 10 points or more [3]: 23 (56.1) n (%) | UAS7 Change from baseline Mean (SD) [4]: −11.57 (10.61) | UAS7 Change from baseline Median [4]: −10.00 | UAS7 Mean (SD) [4]: 17.77 (10.26) | UAS7 Median [4]: 18.00 | UAS7 Percent change from baseline Mean (SD) [4]: −38.05 (33.56) % | UAS7 Percent change from baseline Median [4]: −30.95% | UAS7 Change from baseline Mean (SD) [5]: −20.86 (9.80) | UAS7 Change from baseline Median [5]: −21.00 | UAS7 Mean (SD) [5]: 12.17 (8.54) | UAS7 Percent change from baseline Mean (SD) [5]: −63.75 (22.12) % | UAS7 Percent change from baseline Median [5]: −69.05% | Non-responder, UAS7 reduction from baseline of 10 points or more [6]: 17 (48.6) n (%) | OR for rilzabrutinib vs. placebo, UAS7 reduction of 10 points or more [6]: 3.580 | RRD (%) for rilzabrutinib vs. placebo, UAS7 reduction of 10 points or more [6]: 28.5 % | Responder, UAS7 reduction from baseline of 10 points or more [6]: 18 (51.4) n (%) | Non-responder, UAS7 reduction from baseline of 10 points or more [7]: 19 (46.3) n (%) | OR for rilzabrutinib vs. placebo, UAS7 reduction of 10 points or more [7]: 3.388 | RRD (%) for rilzabrutinib vs. placebo, UAS7 reduction of 10 points or more [7]: 27.8 % | Responder, UAS7 reduction from baseline of 10 points or more [7]: 22 (53.7) n (%) | UAS7 Change from baseline Mean (SD) [8]: −10.10 (8.61) | UAS7 Change from baseline Median [8]: −10.00 | UAS7 Mean (SD) [8]: 19.59 (10.86) | UAS7 Median [8]: 18.10 | UAS7 Percent change from baseline Mean (SD) [8]: −35.50 (31.03) % | UAS7 Percent change from baseline Median [8]: −35.71% | UAS7 Change from baseline Mean (SD) [9]: −14.00 (14.98) | UAS7 Change from baseline Median [9]: −10.00 | UAS7 Mean (SD) [9]: 19.00 (13.67) | UAS7 Median [9]: 23.00 | UAS7 Percent change from baseline Mean (SD) [9]: −40.50 (43.43) % | UAS7 Percent change from baseline Median [9]: −27.44% | Non-responder, UAS7 reduction from baseline of 10 points or more [10]: 17 (48.6) n (%) | OR for rilzabrutinib vs. placebo, UAS7 reduction of 10 points or more [10]: 3.686 | RRD (%) for rilzabrutinib vs. placebo, UAS7 reduction of 10 points or more [10]: 28.9 % | Responder, UAS7 reduction from baseline of 10 points or more [10]: 18 (51.4) n (%) | Non-responder, UAS7 reduction from baseline of 10 points or more [11]: 23 (60.5) n (%) | OR for rilzabrutinib vs. placebo, UAS7 reduction of 10 points or more [11]: 2.169 | RRD (%) for rilzabrutinib vs. placebo, UAS7 reduction of 10 points or more [11]: 16.6 % | Responder, UAS7 reduction from baseline of 10 points or more [11]: 15 (39.5) n (%) | UAS7 Change from baseline Mean (SD) [12]: −7.67 (8.84) | UAS7 Change from baseline Median [12]: −5.00 | UAS7 Mean (SD) [12]: 23.44 (8.97) | UAS7 Median [12]: 23.00 | UAS7 Percent change from baseline Mean (SD) [12]: −23.23 (26.34) % | UAS7 Percent change from baseline Median [12]: −16.67% | UAS7 Change from baseline Mean (SD) [13]: −19.00 (NC) | UAS7 Change from baseline Median [13]: −19.00 | UAS7 Mean (SD) [13]: 22.00 (NC) | UAS7 Median [13]: 22.00 | UAS7 Percent change from baseline Mean (SD) [13]: −46.34 (NC) % | UAS7 Percent change from baseline Median [13]: −46.34% | Non-responder, UAS7 reduction from baseline of 10 points or more [14]: 23 (62.2) n (%) | OR for rilzabrutinib vs. placebo, UAS7 reduction of 10 points or more [14]: 2.174 | RRD (%) for rilzabrutinib vs. placebo, UAS7 reduction of 10 points or more [14]: 16.6 % | Responder, UAS7 reduction from baseline of 10 points or more [14]: 14 (37.8) n (%) | Non-responder, UAS7 reduction from baseline of 10 points or more (Week 2, 400 mg TID, ITT population): 13 (31.7) n (%)
